Measurements from patent US11083725B2 (priority 2014, dated 2021).

Test system: NHBE cells
Assay: Biolog metabolic array: substrate use by NHBE cells with or without CA09 infection
Assay type: cell-based, human
Conditions: for Substrate use, 590 nm absorbance normalized to zero hour, 1 hr: Biolog PMM2, 1 hr; for Substrate use, 590 nm absorbance normalized to zero hour, 5 hr: Biolog PMM2, 5 hr; for Substrate use, 590 nm absorbance normalized to zero hour, 7 hr: Biolog PMM2, 7 hr; for Substrate use, 590 nm absorbance normalized to zero hour, 0 hr: Biolog PMM2, 0 hr
[1] = Control (uninfected) NHBE cells
[2] = Virus (CA09-infected, MOI 1) NHBE cells
[3] = Virus: CA09-infected NHBE cells, MOI 1, Biolog PMM2
[4] = Virus (CA09-infected NHBE cells, MOI 1)

SMILES	590 nm absorbance normalized to zero hour (substrate use), 1 hr [1]	590 nm absorbance normalized to zero hour (substrate use), 2 hr [1]	590 nm absorbance normalized to zero hour (substrate use), 3 hr [1]	590 nm absorbance normalized to zero hour (substrate use), 4 hr [1]	590 nm absorbance normalized to zero hour (substrate use), 6 hr [1]	590 nm absorbance normalized to zero hour (substrate use), 8 hr [1]	590 nm absorbance normalized to zero hour (substrate use), 9 hr [1]	590 nm absorbance normalized to zero hour (substrate use), 10 hr [1]	590 nm absorbance normalized to zero hour (substrate use), 11 hr [1]	Substrate use, 590 nm absorbance normalized to zero hour, 1 hr [1]	Substrate use, 590 nm absorbance normalized to zero hour, 5 hr [1]	Substrate use, 590 nm absorbance normalized to zero hour, 7 hr [1]	590 nm absorbance normalized to zero hour (substrate use), 1 hr [3]	590 nm absorbance normalized to zero hour (substrate use), 2 hr [3]	590 nm absorbance normalized to zero hour (substrate use), 3 hr [3]	590 nm absorbance normalized to zero hour (substrate use), 4 hr [3]	590 nm absorbance normalized to zero hour (substrate use), 5 hr [3]	590 nm absorbance normalized to zero hour (substrate use), 6 hr [3]	590 nm absorbance normalized to zero hour (substrate use), 7 hr [3]	590 nm absorbance normalized to zero hour (substrate use), 8 hr [3]	further results
O=C(O)CCC(=O)O [Succinic Acid]	1.02	1.06	1.08	1.06	0.39	0.96	0.94	0.87	0.81	1.02	1.04	1.00	1.69	2.01	2.37	2.37	2.54	2.73	2.78	2.85	590 nm absorbance normalized to zero hour (substrate use), 1 hr [2]: 1.69; 590 nm absorbance normalized to zero hour (substrate use), 2 hr [2]: 2.01; 590 nm absorbance normalized to zero hour (substrate use), 3 hr [2]: 2.37; 590 nm absorbance normalized to zero hour (substrate use), 4 hr [2]: 2.37; 590 nm absorbance normalized to zero hour (substrate use), 5 hr [2]: 2.54; 590 nm absorbance normalized to zero hour (substrate use), 6 hr [2]: 2.73; 590 nm absorbance normalized to zero hour (substrate use), 7 hr [2]: 2.78; 590 nm absorbance normalized to zero hour (substrate use), 8 hr [2]: 2.85; 590 nm absorbance normalized to zero hour (substrate use), 9 hr [2]: 3.06; 590 nm absorbance normalized to zero hour (substrate use), 10 hr [2]: 2.98; 590 nm absorbance normalized to zero hour (substrate use), 11 hr [2]: 3.12; 590 nm absorbance normalized to zero hour (substrate use), 9 hr [3]: 3.06; 590 nm absorbance normalized to zero hour (substrate use), 10 hr [3]: 2.98; 590 nm absorbance normalized to zero hour (substrate use), 11 hr [3]: 3.12
CC(O)CO (centres unmarked) [1,2-Propanediol]	1.28	1.41	1.17	1.19	0.68	1.12	1.22	1.15	1.18	1.28	1.27	1.17	1.95	2.44	2.83	2.94	3.29	3.55	3.75	3.87	590 nm absorbance normalized to zero hour (substrate use), 0 hr [1]: 1.00; Substrate use, 590 nm absorbance normalized to zero hour, 0 hr [1]: 1.00; 590 nm absorbance normalized to zero hour (substrate use), 0 hr [2]: 1.00; 590 nm absorbance normalized to zero hour (substrate use), 1 hr [2]: 1.95; 590 nm absorbance normalized to zero hour (substrate use), 2 hr [2]: 2.44; 590 nm absorbance normalized to zero hour (substrate use), 3 hr [2]: 2.83; 590 nm absorbance normalized to zero hour (substrate use), 4 hr [2]: 2.94; 590 nm absorbance normalized to zero hour (substrate use), 5 hr [2]: 3.29; 590 nm absorbance normalized to zero hour (substrate use), 6 hr [2]: 3.55; 590 nm absorbance normalized to zero hour (substrate use), 7 hr [2]: 3.75; 590 nm absorbance normalized to zero hour (substrate use), 8 hr [2]: 3.87; 590 nm absorbance normalized to zero hour (substrate use), 9 hr [2]: 4.24; 590 nm absorbance normalized to zero hour (substrate use), 10 hr [2]: 4.34; 590 nm absorbance normalized to zero hour (substrate use), 11 hr [2]: 4.75; 590 nm absorbance normalized to zero hour (substrate use), 0 hr [3]: 1.00; 590 nm absorbance normalized to zero hour (substrate use), 9 hr [3]: 4.24; 590 nm absorbance normalized to zero hour (substrate use), 10 hr [3]: 4.34; 590 nm absorbance normalized to zero hour (substrate use), 11 hr [3]: 4.75
CO[C@H]1O[C@H](CO)[C@@H](O)[C@H](O)[C@@H]1O [a-Methyl-D-Mannoside]	1.26	1.58	1.74	1.89	2.77	2.13	2.16	2.95	2.58	1.26	2.33	2.46	0.38	0.54	0.64	0.69	0.83	0.89	0.93	0.99	590 nm absorbance normalized to zero hour (substrate use), 0 hr [1]: 1.00; Substrate use, 590 nm absorbance normalized to zero hour, 0 hr [1]: 1.00; 590 nm absorbance normalized to zero hour (substrate use), 0 hr [4]: 1.00; 590 nm absorbance normalized to zero hour (substrate use), 1 hr [4]: 0.38; 590 nm absorbance normalized to zero hour (substrate use), 2 hr [4]: 0.54; 590 nm absorbance normalized to zero hour (substrate use), 3 hr [4]: 0.64; 590 nm absorbance normalized to zero hour (substrate use), 4 hr [4]: 0.69; 590 nm absorbance normalized to zero hour (substrate use), 5 hr [4]: 0.83; 590 nm absorbance normalized to zero hour (substrate use), 6 hr [4]: 0.89; 590 nm absorbance normalized to zero hour (substrate use), 7 hr [4]: 0.93; 590 nm absorbance normalized to zero hour (substrate use), 8 hr [4]: 0.99; 590 nm absorbance normalized to zero hour (substrate use), 9 hr [4]: 1.10; 590 nm absorbance normalized to zero hour (substrate use), 10 hr [4]: 1.14; 590 nm absorbance normalized to zero hour (substrate use), 11 hr [4]: 1.24; 590 nm absorbance normalized to zero hour (substrate use), 0 hr [3]: 1.00; 590 nm absorbance normalized to zero hour (substrate use), 9 hr [3]: 1.10; 590 nm absorbance normalized to zero hour (substrate use), 10 hr [3]: 1.14; 590 nm absorbance normalized to zero hour (substrate use), 11 hr [3]: 1.24
